Laboratory results from US20190152992A1, “BENZODIOXANE DERIVATIVES AND THEIR PHARMACEUTICAL USE” (Orion Corporation, priority 2016, published 2019).
Like-named read-outs stand apart in the source and are kept apart here.

Columns and labels:
[1] = molecular target: T1, human alpha2C receptors (Homo sapiens, UniProt P18825); test: Determination of alpha2C antagonistic activity in vitro (FLIPR calcium assay); conditions: for Kb: Kb calculated from IC50 with the Cheng-Prusoff equation, adrenaline as agonist, CHO cells, human alpha2C
T1 sequence (P18825 1-462): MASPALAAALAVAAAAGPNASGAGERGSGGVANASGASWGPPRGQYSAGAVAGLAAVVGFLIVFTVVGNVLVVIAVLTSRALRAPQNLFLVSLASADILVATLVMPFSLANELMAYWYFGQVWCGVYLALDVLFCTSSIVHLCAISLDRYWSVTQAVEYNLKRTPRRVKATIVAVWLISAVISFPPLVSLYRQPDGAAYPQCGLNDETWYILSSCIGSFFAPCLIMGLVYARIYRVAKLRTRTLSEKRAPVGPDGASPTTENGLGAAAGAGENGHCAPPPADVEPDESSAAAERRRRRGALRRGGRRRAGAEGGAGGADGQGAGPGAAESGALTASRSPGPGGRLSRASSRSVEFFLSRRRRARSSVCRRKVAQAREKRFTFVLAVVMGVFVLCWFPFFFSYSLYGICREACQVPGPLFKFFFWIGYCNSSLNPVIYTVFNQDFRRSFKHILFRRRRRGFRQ

[2] = molecular target: T2, human alpha2A receptors (Homo sapiens, UniProt P08913); conditions: for IC50: read-out: Alpha 2A Adrenaline IC50, antagonism, cells stimulated with adrenaline, CHO cells stably transfected with human alpha2A, cotransfected with Gα16, intracellular calcium; for Kb: read-out: Alpha 2A Adrenaline Kb, Kb calculated from IC50 with the Cheng-Prusoff equation, adrenaline as agonist, CHO cells, human alpha2A
T2 sequence (P08913 1-465): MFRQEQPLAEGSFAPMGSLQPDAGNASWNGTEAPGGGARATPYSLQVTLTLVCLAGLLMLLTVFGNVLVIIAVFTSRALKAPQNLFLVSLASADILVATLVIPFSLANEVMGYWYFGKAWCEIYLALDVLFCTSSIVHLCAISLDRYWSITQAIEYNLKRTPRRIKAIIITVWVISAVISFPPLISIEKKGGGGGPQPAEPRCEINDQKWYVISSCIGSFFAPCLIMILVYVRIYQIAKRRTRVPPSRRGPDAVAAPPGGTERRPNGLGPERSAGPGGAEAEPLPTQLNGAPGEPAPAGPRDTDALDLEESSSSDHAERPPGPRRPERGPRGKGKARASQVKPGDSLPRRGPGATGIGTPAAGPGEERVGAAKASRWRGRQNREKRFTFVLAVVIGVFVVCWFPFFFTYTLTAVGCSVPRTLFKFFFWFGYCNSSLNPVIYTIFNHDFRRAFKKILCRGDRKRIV
Method: (§1) Experiment 1: Determination of alpha2A and alpha2C Antagonistic Activity In Vitro
(§2) The growth medium was removed and the cells were incubated with the test compounds and the FLIPR Calcium 6 Assay reagent (Molecular Devices, CA, USA) for 2 h at 37° C. in dark. The test compounds (concentrations in cells 100 pM-10 μM) were dissolved in Probenecid-Ringer consisting of 150 mM NaCl, 3 mM KCl, 1.2 mM MgCl2, 1 mM CaCl2, 5 mM glucose, 20 mM HEPES and 2.5 mM probenecid (pH 7.4 adjusted with 1.0 M NaOH). […] All experiments were performed at 37° C. For agonism measurements the test compounds dissolved in Probenecid-Ringer were applied by FLIPR Tetra at 15 s time point. In order to determine antagonism, the cells were stimulated either with 100 nM adrenaline or noradrenaline and the test compounds were added to the cells 2 h before the experiment with the FLIPR Calcium 6 Assay reagent. […] Typically, there were four replicates at each concentration and six different dose levels. […] The minimum fluorescence value subtracted from the maximum value for each well was used in the calculations. ScreenWorks version 4.0 software was used for analyzing the results. Fitting of the antagonist dose-response results was performed with the free Hill equation and the IC50 values were fitted with IDBS XE software using model 200: y=(A+(B/(1+((x/C)̂D)))), where A is the curve maximum, B the curve minimum and C equals the EC50 value. D is slope factor (Hill). Kb was calculated with the Cheng-Prusoff equation Kb=A/((B/C)+1), where A is the IC50 of antagonist, B the concentration of agonist and C the EC50 of the agonist.

[3] = molecular target: T2, human alpha2A receptors; test: cell-based
Method: as §1, §2

[4] = read-out: Alpha 2C Adrenaline IC50, antagonism, cells stimulated with adrenaline, CHO cells stably transfected with human alpha2C, cotransfected with Gα16, intracellular calcium
[5] = read-out: Alpha 2C Adrenaline Kb

Molecule	IC50 [1] [nM]	Kb ([1]; Alpha 2C Adrenaline Kb) [nM]	IC50 [2] [nM]	Kb [2] [nM]	IC50 [1, 4] [nM]	Kb [1, 5] [nM]	IC50 [3] [nM]	Kb [3] [nM]
CC1CCN([C@H]2CCCN(C[C@H]3COc4ccccc4O3)C2)C1=O (single isomer, unassigned; diastereomer 2) [example 99]	0.15	0.02	> 10000	> 449	–	–	–	–
O=C1NCCCN1[C@H]1CCCN(C[C@H]2COc3ccccc3O2)C1 [compound 53, 1-((S)-1-(((S)-2,3-Dihydrobenzo[b][1,4]dioxin-2-yl)methyl)piperidin-3-yl)tetrahydropyrimidin-2(1H)-one]	–	–	> 10000	> 449	1.04	0.105	–	–
Cc1nc2cccnc2n1[C@H]1CCCN(C[C@H]2COc3ccccc3O2)C1 [example 156, 3-((S)-1-(((S)-2,3-Dihydrobenzo[b][1,4]dioxin-2-yl)methyl)-piperidin-3-yl)-2-methyl-3H-imidazo[4,5-b]pyridine]	0.012	0.001	–	–	–	–	3580	161
Cc1nc2ncccc2n1[C@H]1CCCN(C[C@H]2COc3ccccc3O2)C1 [example 157, 1-((S)-1-(((S)-2,3-Dihydrobenzo[b][1,4]dioxin-2-yl)methyl)-piperidin-3-yl)-2-methyl-1H-imidazo[4,5-b]pyridine]	1.63	0.164	–	–	–	–	> 10000	> 449
Cc1nc2cnccc2n1[C@H]1CCCN(C[C@H]2COc3ccccc3O2)C1 [example 158, 1-((S)-1-(((S)-2,3-Dihydrobenzo[b][1,4]dioxin-2-yl)methyl)piperidin-3-yl)-2-methyl-1H-imidazo[4,5-c]pyridine]	3.43	0.346	–	–	–	–	> 10000	> 449
CCc1nc2cccnc2n1[C@H]1CCCN(C[C@H]2COc3ccccc3O2)C1 [example 159, 3-((S)-1-(((S)-2,3-Dihydrobenzo[b][1,4]dioxin-2-yl)methyl)piperidin-3-yl)-2-ethyl-3H-imidazo[4,5-b]pyridine]	0.01	0.001	–	–	–	–	> 10000	> 449
Cc1nc2cncnc2n1[C@H]1CCCN(C[C@H]2COc3ccccc3O2)C1 [example 160, 9-((S)-1-(((S)-2,3-Dihydrobenzo[b][1,4]dioxin-2-yl)methyl)piperidin-3-yl)-8-methyl-9H-purine]	0.15	0.016	–	–	–	–	> 10000	> 449
c1ccc2c(c1)OC[C@H](CN1CCC[C@H](n3cnc4cncnc43)C1)O2 [example 161, 9-((S)-1-(((S)-2,3-Dihydrobenzo[b][1,4]dioxin-2-yl)methyl)-piperidin-3-yl)-9H-purine]	0.294	0.03	–	–	–	–	> 10000	> 449
CC1(C)CCN([C@H]2CCCN(C[C@H]3COc4ccccc4O3)C2)S1(=O)=O [example 162, 2-((S)-1-(((S)-2,3-Dihydrobenzo[b][1,4]dioxin-2-yl)methyl)piperidin-3-yl)-5,5-dimethylisothiazolidine 1,1-dioxide]	6.13	0.62	–	–	–	–	> 10000	> 449
(R)-1-((S)-1-(((S)-2,3-Dihydrobenzo[b][1,4]dioxin-2-yl)methyl)piperidin-3-yl)-3-methyl-3-phenylpyrrolidine-2,5-dione and (S)-1-((S)-1-(((S)-2,3-dihydrobenzo[b][1,4]dioxin-2-yl)methyl)piperidin-3-yl)-3-methyl-3-phenylpyrrolidine-2,5-dione [example 36]	–	–	1560	70	0.908	0.091	–	–
